The text below walks through data of patent publication US10919882B2, “Compounds for use in synthesis of peptidomimetics” (THE FEINSTEIN INSTITUTES FOR MEDICAL RESEARCH, priority 2019, dated 2021).

The nature of the data set: Stability of HOBt aza building blocks with Boc, Fmoc or Phth alpha-amino protection. The class given is physicochemical. The text has this: Assessing the Compatibility of HOBt Aza Building Blocks in the Presence of Traditional Alpha Amino Protecting Groups (e.g. Phth, Fmoc and Boc) with Other Protecting Synthesis and Stability
The issues with stability were observed when the N-1 is protected with R=Boc or Fmoc and R′═H. This is due to the presence of NH that leads to undesirable intramolecular cyclization and formation oxadiazoles (Future Med. Chem. (2011) 3(9), 1139-1164) Org. Biomol. Chem., 2015, 13, 59-63. Boc and Fmoc form an unwanted side reaction of carboxyanhydride in peptide synthesis with acid halogenation reagent (Acc. Chem. Res. 1996, 29, 268-274; J. Am. Chem. Soc. 1996, 118, 9796-9797) and in azapeptide synthesis with hydrazine component, the oxadiazalone will be formed (Journal of Peptide Science 2013, 19, 725-729).

Regarding `O=C(On1nnc2ccccc21)N(Cc1ccccc1)N1C(=O)c2ccccc2C1=O`, for the setting “in solution / organic solvents, room temperature”, the “Isolated Yield and Stability (in solution)” value was “Stable in organic solvents such as acetone, dichloromethane, acetonitrile, DMF at room temperature for weeks”. The “Isolated Yield and Stability (solid form)” value (isolated product as solid) is “Stable white solid”.
